Calls of active or inactive are those of the source. The calls are words filed in the database; no cut-off is given here.
How the values were obtained:
[1] = tested on: NCI-H1299; experiment: Antiproliferative activity against human NCI-H1299 cells assessed as reduction in cell viability incubated for 72 hrs by sulforhodamine B assay; format: functional, cell-based; conditions: NCI-H1299, 72 h
[2] = tested on: BEAS-2B; experiment: Cytotoxicity against human BEAS-2B cells assessed as reduction in cell viability incubated for 72 hrs by sulforhodamine B assay; format: cell-based
[3] = tested on: PC-9; experiment: Inhibition of glycolysis in human PC-9 cells assessed as reduction in extracellular glucose consumption at 5 uM incubated for 24 hrs; format: functional, cell-based
[4] = tested on: PC-9; experiment: Cell cycle arrest in human PC-9 cells assessed as accumulation at S phase at 5 uM measured after 48 hrs by propidium iodide staining based flow cytometry (reference value: 52.95 to 53.28%); format: functional
[5] = tested on: U-87 MG; experiment: Antiproliferative activity against human U-87MG cells assessed as reduction in cell viability incubated for 72 hrs by sulforhodamine B assay; format: functional, cell-based, U-87MG ATCC
[6] = tested on: PC-9; experiment: Induction of apoptosis in human PC-9 cells assessed as late apoptotic cells at 5 uM measured after 48 hrs by Annexin V-FITC/propidium iodide staining based flow cytometry (reference value: 5.5 to 6.9%); format: functional
[7] = tested on: NCI-H157; experiment: Induction of apoptosis in human NCI-H157 cells assessed as necrotic cells at 5 uM measured after 48 hrs by Annexin V-FITC/propidium iodide staining based flow cytometry (reference value: 2.5%); format: functional
[8] = tested on: PC-9; experiment: Inhibition of glycolysis in human PC-9 cells assessed as downregulation of HK2 protein expression at 2 to 5 uM incubated for 24 hrs by western blot analysis; format: functional, cell-based; conditions: dose 2-5 µM
[9] = tested on: NCI-H157; experiment: Antiproliferative activity against human NCI-H157 cells assessed as reduction in cell viability measured after 72 hrs by sulforhodamine B assay; format: functional, cell-based; conditions: NCI-H157, 72 h
[10] = tested on: NCI-H157; experiment: Cell cycle arrest in human NCI-H157 cells assessed as accumulation at S phase at 5 uM measured after 48 hrs by propidium iodide staining based flow cytometry (reference value: 26.33 to 26.84%); format: functional
[11] = tested on: NCI-H1703; experiment: Antiproliferative activity against human NCI-H1703 cells assessed as reduction in cell viability incubated for 72 hrs by sulforhodamine B assay; format: functional, cell-based; conditions: NCI-H1703, 72 h
[12] = tested on: NCI-H157; experiment: Induction of apoptosis in human NCI-H157 cells assessed as early apoptotic cells at 5 uM measured after 48 hrs by Annexin V-FITC/propidium iodide staining based flow cytometry (reference value: 1 to 1.1%); format: functional
[13] = tested on: NCI-H157; experiment: Induction of apoptosis in human NCI-H157 cells assessed as induction of PARP cleavage at 2 to 5 uM incubated for 24 hrs by western blot analysis; format: functional, cell-based; conditions: dose 2-5 µM
[14] = tested on: NCI-H157; experiment: Antiproliferative activity against human NCI-H157 cells assessed as cell viability at 50 uM measured after 72 hrs by sulforhodamine B assay; format: functional; conditions: read-out: Activity
[15] = tested on: NCI-H157; experiment: Induction of apoptosis in human NCI-H157 cells assessed as upregulation of Bax protein expression at 2 to 5 uM incubated for 24 hrs by western blot analysis; format: functional, cell-based; conditions: dose 2-5 µM
[16] = tested on: NCI-H157; experiment: Inhibition of glycolysis in human NCI-H157 cells assessed as downregulation of HK2 protein expression at 2 to 5 uM incubated for 24 hrs by western blot analysis; format: functional, cell-based; conditions: dose 2-5 µM
[17] = tested on: PC-9; experiment: Antiproliferative activity against human PC-9 cells assessed as reduction in cell viability incubated for 72 hrs by sulforhodamine B assay; format: functional, cell-based; conditions: PC-9, 72 h
[18] = tested on: NCI-H460; experiment: Antiproliferative activity against human NCI-H460 cells assessed as reduction in cell viability incubated for 72 hrs by sulforhodamine B assay; format: functional, cell-based; conditions: NCI-H460, 72 h
[19] = tested on: PC-9; experiment: Induction of apoptosis in human PC-9 cells assessed as necrotic cells at 5 uM measured after 48 hrs by Annexin V-FITC/propidium iodide staining based flow cytometry (reference value: 0.8%); format: functional
[20] = tested on: PC-9; experiment: Induction of apoptosis in human PC-9 cells assessed as downregulation of Bcl-2 protein expression at 2 to 5 uM incubated for 24 hrs by western blot analysis; format: functional, cell-based; conditions: dose 2-5 µM
[21] = tested on: NCI-H157; experiment: Inhibition of glycolysis in human NCI-H157 cells assessed as reduction in lactate release at 5 uM incubated for 24 hrs; format: functional, cell-based
[22] = tested on: NCI-H157; experiment: Induction of apoptosis in human NCI-H157 cells assessed as viable cells at 5 uM measured after 48 hrs by Annexin V-FITC/propidium iodide staining based flow cytometry (reference value: 94.3%); format: functional; conditions: read-out: Activity
[23] = tested on: PC-9; experiment: Inhibition of glycolysis in human PC-9 cells assessed as reduction in lactate release at 5 uM incubated for 24 hrs; format: functional, cell-based
[24] = tested on: NCI-H157; experiment: Cell cycle arrest in human NCI-H157 cells assessed as accumulation at G0/G1 phase at 5 uM measured after 48 hrs by propidium iodide staining based flow cytometry (reference value: 56.53 to 56.73%); format: functional
[25] = tested on: NCI-H157; experiment: Inhibition of glycolysis in human NCI-H157 cells assessed as downregulation of PKM2 protein expression at 2 to 5 uM incubated for 24 hrs by western blot analysis; format: functional, cell-based; conditions: dose 2-5 µM
[26] = tested on: PC-9; experiment: Inhibition of glycolysis in human PC-9 cells assessed as downregulation of PKM2 protein expression at 2 to 5 uM incubated for 24 hrs by western blot analysis; format: functional, cell-based; conditions: dose 2-5 µM
[27] = tested on: PC-9; experiment: Cell cycle arrest in human PC-9 cells assessed as accumulation at G0/G1 phase at 5 uM measured after 48 hrs by propidium iodide staining based flow cytometry (reference value: 30.67 to 31.96%); format: functional
[28] = tested on: NCI-H157; experiment: Induction of apoptosis in human NCI-H157 cells assessed as late apoptotic cells at 5 uM measured after 48 hrs by Annexin V-FITC/propidium iodide staining based flow cytometry (reference value: 1.95 to 2.1%); format: functional
[29] = tested on: PC-9; experiment: Induction of apoptosis in human PC-9 cells assessed as induction of PARP cleavage at 2 to 5 uM incubated for 24 hrs by western blot analysis; format: functional, cell-based; conditions: dose 2-5 µM
[30] = tested on: NCI-H157; experiment: Induction of apoptosis in human NCI-H157 cells assessed as downregulation of Bcl-2 protein expression at 2 to 5 uM incubated for 24 hrs by western blot analysis; format: functional, cell-based; conditions: dose 2-5 µM
[31] = tested on: NCI-H157; experiment: Cell cycle arrest in human NCI-H157 cells assessed as accumulation at G2/M phase at 5 uM measured after 48 hrs by propidium iodide staining based flow cytometry (reference value: 16.62 to 16.94%); format: functional
[32] = tested on: PC-9; experiment: Cell cycle arrest in human PC-9 cells assessed as accumulation at G2/M phase at 5 uM measured after 48 hrs by propidium iodide staining based flow cytometry (reference value: 15.09 to 16.04%); format: functional
[33] = tested on: PC-9; experiment: Induction of apoptosis in human PC-9 cells assessed as early apoptotic cells at 5 uM measured after 48 hrs by Annexin V-FITC/propidium iodide staining based flow cytometry (reference value: 2.55 to 2.8%); format: functional
[34] = tested on: A549; experiment: Antiproliferative activity against human A549 cells assessed as reduction in cell viability measured after 72 hrs by sulforhodamine B assay; format: functional, cell-based; conditions: A549, 72 h
[35] = tested on: PC-9; experiment: Induction of apoptosis in human PC-9 cells assessed as upregulation of Bax protein expression at 2 to 5 uM incubated for 24 hrs by western blot analysis; format: functional, cell-based; conditions: dose 2-5 µM
[36] = tested on: PC-9; experiment: Induction of apoptosis in human PC-9 cells assessed as viable cells at 5 uM measured after 48 hrs by Annexin V-FITC/propidium iodide staining based flow cytometry (reference value: 90.9%); format: functional; conditions: read-out: Activity
[37] = tested on: U-251; experiment: Antiproliferative activity against human U-251 cells assessed as reduction in cell viability incubated for 72 hrs by sulforhodamine B assay; format: functional, cell-based; conditions: U-251, 72 h
[38] = tested on: NCI-H157; experiment: Inhibition of glycolysis in human NCI-H157 cells assessed as reduction in extracellular glucose consumption at 5 uM incubated for 24 hrs; format: functional, cell-based
[39] = tested on: A549; experiment: Antiproliferative activity against human A549 cells assessed as cell viability at 50 uM measured after 72 hrs by sulforhodamine B assay; format: functional; conditions: read-out: Activity

IC50 [1]: 2.7 µM
IC50 [5]: 10.4 µM
IC50 [9]: 2.9 µM
IC50 [11]: 3.6 µM
IC50 [17]: 2.1 µM
IC50 [18]: 2.3 µM
IC50 [34]: 3.3 µM
IC50 [37]: 4.5 µM
Structure (SMILES): CC1(C)CC[C@H](O)[C@@]2(C)[C@H]1CC=C1C(=O)OC[C@@]12O
IC50 [2]: 6.3 µM
inhibition [3]: Active
Activity [4]: 22.97%
Activity [6]: 32.1%
Activity [7]: 4.9%
inhibition [8]: Active
Activity [10]: 36.68%
Activity [12]: 6.1%
Activity [13]: Active
viability at 50 µM [14]: < 50%
Activity [15]: Active
inhibition [16]: Active
Activity [19]: 23.4%
Activity [20]: Active
inhibition [21]: Active
viability at 5 µM [22]: 70.7%
inhibition [23]: Active
Activity [24]: 47.83%
inhibition [25]: Active
inhibition [26]: Active
Activity [27]: 55.77%
Activity [28]: 18.15%
Activity [29]: Active
Activity [30]: Active
Activity [31]: 15.21%
Activity [32]: 20.29%
Activity [33]: 5.7%
Activity [35]: Active
viability at 5 µM [36]: 38.1%
inhibition [38]: Active
viability at 50 µM [39]: < 50%

Source: ChEMBL document CHEMBL4732255, “Evaluation of the antiproliferative activity of 106 marine microbial metabolites against human lung cancer cells and potential antiproliferative mechanism of purpuride G” (Bioorg Med Chem Lett, 2021)
